Results published in PubChem BioAssay AID248 (DTP/NCI, 2004).
Values joined by “and” are separate entries in the source; they are usually repeats but may differ in a detail not shown here. Identical values can stand only once. Inconclusive results and toxic doses are left out. Rule as the data show it: active = T/C of 150% or more; inactive = T/C below 125%.

System: L1210 leukemia ip in BDF1 mice, survival T/C
Experiment: NCI In Vivo Anticancer Drug Screen. Data for tumor model L1210 Leukemia (intraperitoneal) in B6D2F1 (BDF1) mice
Conditions: endpoint: mean survival time, higher = longer survival
Procedure, shortened: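 Tumor cells were implanted, animals were treated, and survival was followed. The result divides the treated measurement by the vehicle-control measurement.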

[1] = dose: 25.0 mg/kg/injection, schedule: Q01DX009 (ip), vehicle: Klucel (hydroxypropylcellulose) (HPC)
[2] = dose: 50.0 mg/kg/injection, schedule: Q01DX009 (ip), vehicle: Klucel (hydroxypropylcellulose) (HPC)
[3] = dose: 100.0 mg/kg/injection, schedule: Q01DX009 (ip), vehicle: Klucel (hydroxypropylcellulose) (HPC)
[4] = dose: 200.0 mg/kg/injection, schedule: Q01DX009 (ip), vehicle: Klucel (hydroxypropylcellulose) (HPC)
[5] = dose: 400.0 mg/kg/injection, schedule: Q01DX009 (ip), vehicle: Klucel (hydroxypropylcellulose) (HPC)
[6] = dose: 100.0 mg/kg/injection, schedule: Q01DX001 (ip), vehicle: Klucel (hydroxypropylcellulose) (HPC)
[7] = dose: 100.0 mg/kg/injection, schedule: Q04DX003 (ip), vehicle: Klucel (hydroxypropylcellulose) (HPC)
[8] = dose: 200.0 mg/kg/injection, schedule: Q04DX003 (ip), vehicle: Klucel (hydroxypropylcellulose) (HPC)
[9] = dose: 400.0 mg/kg/injection, schedule: Q04DX003 (ip), vehicle: Klucel (hydroxypropylcellulose) (HPC)
[10] = dose: 100.0 mg/kg/injection, schedule: Q01DX001 (ip), vehicle: saline
[11] = dose: 200.0 mg/kg/injection, schedule: Q01DX001 (ip), vehicle: saline
[12] = dose: 400.0 mg/kg/injection, schedule: Q01DX001 (ip), vehicle: saline
[13] = dose: 50.0 mg/kg/injection, schedule: Q01DX009 (ip), vehicle: saline with Tween-80
[14] = dose: 100.0 mg/kg/injection, schedule: Q01DX009 (ip), vehicle: saline with Tween-80
[15] = dose: 200.0 mg/kg/injection, schedule: Q01DX009 (ip), vehicle: saline with Tween-80
[16] = dose: 100.0 mg/kg/injection, schedule: Q04DX003 (ip), vehicle: saline
[17] = dose: 200.0 mg/kg/injection, schedule: Q04DX003 (ip), vehicle: saline
[18] = dose: 100.0 mg/kg/injection, schedule: Q04DX002 (ip), vehicle: saline with Tween-80
[19] = dose: 200.0 mg/kg/injection, schedule: Q04DX002 (ip), vehicle: saline with Tween-80
[20] = dose: 400.0 mg/kg/injection, schedule: Q04DX002 (ip), vehicle: saline with Tween-80
[21] = dose: 100.0 mg/kg/injection, schedule: Q04DX003 (ip), vehicle: saline with Tween-80
[22] = dose: 200.0 mg/kg/injection, schedule: Q04DX003 (ip), vehicle: saline with Tween-80
[23] = dose: 400.0 mg/kg/injection, schedule: Q04DX003 (ip), vehicle: saline with Tween-80
[24] = dose: 400.0 mg/kg/injection, schedule: Q01DX009 (ip), vehicle: saline with Tween-80

Measured: T/C

COC(=O)c1ccccc1NC(=O)Nc1ccc(F)c([N+](=O)[O-])c1
inactive: [1] 109 % of control | [2] 103 % of control | [3] 93 % of control and 89 % of control | [4] 95 % of control | [5] 93 % of control

Cc1ncc(C(=O)O)n1C(C)c1ccccc1 (configuration not stated)
inactive: [6] 100 % of control | [3] 94 % of control and 104 % of control | dose: 100.0 mg/kg/injection, schedule: Q04DX002 (ip), vehicle: Klucel (hydroxypropylcellulose) (HPC) 94 % of control and 100 % of control and 102 % of control | [7] 93 % of control | dose: 200.0 mg/kg/injection, schedule: Q01DX001 (ip), vehicle: Klucel (hydroxypropylcellulose) (HPC) 109 % of control | [4] 100 % of control | dose: 200.0 mg/kg/injection, schedule: Q04DX002 (ip), vehicle: Klucel (hydroxypropylcellulose) (HPC) 94 % of control and 99 % of control and 100 % of control | [8] 95 % of control | dose: 400.0 mg/kg/injection, schedule: Q01DX001 (ip), vehicle: Klucel (hydroxypropylcellulose) (HPC) 96 % of control | [5] 97 % of control and 100 % of control | dose: 400.0 mg/kg/injection, schedule: Q04DX002 (ip), vehicle: Klucel (hydroxypropylcellulose) (HPC) 98 % of control and 103 % of control and 104 % of control | [9] 96 % of control

O=c1c(Cl)c(C(Cl)(Cl)Cl)n(O)c2ccccc12
inactive: dose: 6.25 mg/kg/injection, schedule: Q01DX001 (ip), vehicle: Klucel (hydroxypropylcellulose) (HPC) 104 % of control | dose: 12.5 mg/kg/injection, schedule: Q01DX001 (ip), vehicle: Klucel (hydroxypropylcellulose) (HPC) 104 % of control | dose: 25.0 mg/kg/injection, schedule: Q01DX001 (ip), vehicle: Klucel (hydroxypropylcellulose) (HPC) 98 % of control | dose: 50.0 mg/kg/injection, schedule: Q01DX001 (ip), vehicle: Klucel (hydroxypropylcellulose) (HPC) 103 % of control | [6] 95 % of control

Cc1n[nH]c(=S)n1NC=O
inactive: [10] 94 % of control | [11] 94 % of control | [12] 90 % of control

COc1ccc(C(=O)C/C(=N\N(C(=O)c2ccc(OC)cc2)c2ccccc2)c2ccc(OC)cc2)cc1
inactive: [13] 100 % of control | [14] 93 % of control | [15] 98 % of control

COC(=O)[CH]([Hg][CH](C(=O)OC)C(=O)OC)C(=O)OC
inactive: dose: 3.12 mg/kg/injection, schedule: Q04DX002 (ip), vehicle: Klucel (hydroxypropylcellulose) (HPC) 88 % of control | dose: 6.25 mg/kg/injection, schedule: Q04DX002 (ip), vehicle: Klucel (hydroxypropylcellulose) (HPC) 98 % of control | dose: 12.5 mg/kg/injection, schedule: Q04DX002 (ip), vehicle: Klucel (hydroxypropylcellulose) (HPC) 91 % of control

CC(=O)/C=N/Nc1ccccc1
inactive: [1] 93 % of control | [2] 97 % of control | dose: 50.0 mg/kg/injection, schedule: Q04DX003 (ip), vehicle: carboxymethylcellulose (CMC) 110 % of control | [3] 97 % of control | dose: 100.0 mg/kg/injection, schedule: Q04DX003 (ip), vehicle: carboxymethylcellulose (CMC) 106 % of control

CCCCCCCCCCCCCCSSCCCCCCCCCCCCCC
inactive: [10] 98 % of control | [11] 92 % of control | [12] 96 % of control

CC(=O)NN=C(C)C
inactive: dose: 25.0 mg/kg/injection, schedule: Q01DX009 (ip), vehicle: saline 102 % of control | dose: 50.0 mg/kg/injection, schedule: Q01DX009 (ip), vehicle: saline 111 % of control | dose: 50.0 mg/kg/injection, schedule: Q04DX003 (ip), vehicle: saline 99 % of control | [16] 99 % of control | [17] 99 % of control

O=C1CSC(=S)N1c1ccc(N2C(=O)CSC2=S)cc1
inactive: [18] 90 % of control | [19] 96 % of control | [20] 100 % of control

O=C1CCC(N2C(=O)C3C(C2=O)C2(Cl)C(Cl)=C(Cl)C3(Cl)C2(Cl)Cl)C(=O)N1 (configuration not stated)
inactive: [16] 94 % of control | [17] 97 % of control

COC(=O)c1ccccc1NC(=O)Nc1cccc(Cl)c1C
inactive: [3] 86 % of control | [4] 95 % of control

NC(=O)c1cc(N2CC2)c([N+](=O)[O-])cc1[N+](=O)[O-]
inactive: dose: 5.0 mg/kg/injection, schedule: Q01DX001 (ip), vehicle: other 110 % of control | dose: 10.0 mg/kg/injection, schedule: Q01DX001 (ip), vehicle: other 98 % of control | dose: 10.0 mg/kg/injection, schedule: Q01DX009 (ip), vehicle: saline 105 % of control | dose: 20.0 mg/kg/injection, schedule: Q01DX001 (ip), vehicle: other 101 % of control | dose: 20.0 mg/kg/injection, schedule: Q01DX009 (ip), vehicle: saline 105 % of control | dose: 40.0 mg/kg/injection, schedule: Q01DX001 (ip), vehicle: other 106 % of control | dose: 40.0 mg/kg/injection, schedule: Q01DX009 (ip), vehicle: saline 113 % of control | dose: 50.0 mg/kg/injection, schedule: Q01DX001 (ip), vehicle: other 94 % of control | dose: 80.0 mg/kg/injection, schedule: Q01DX001 (ip), vehicle: other 97 % of control | dose: 100.0 mg/kg/injection, schedule: Q01DX001 (ip), vehicle: other 96 % of control

CCN(CC)CCNc1ncnc2c1cnn2-c1ccc(Cl)cc1
inactive: [1] 95 % of control | [2] 95 % of control | [3] 92 % of control | [14] 101 % of control | [7] 95 % of control | [21] 103 % of control | dose: 150.0 mg/kg/injection, schedule: Q01DX009 (ip), vehicle: Klucel (hydroxypropylcellulose) (HPC) 101 % of control | [15] 95 % of control | [8] 95 % of control | [22] 94 % of control | dose: 225.0 mg/kg/injection, schedule: Q01DX009 (ip), vehicle: Klucel (hydroxypropylcellulose) (HPC) 93 % of control | dose: 335.0 mg/kg/injection, schedule: Q01DX009 (ip), vehicle: Klucel (hydroxypropylcellulose) (HPC) 87 % of control | [9] 95 % of control | [23] 103 % of control

CC(=O)Nc1c2ccccc2nc2ccccc12
inactive: [18] 90 % of control | [19] 97 % of control | [20] 90 % of control

CC(C)C(C(=O)O)N1C(=O)C2C3C=CC(C3)C2C1=O (configuration not stated)
inactive: [21] 102 % of control | [22] 102 % of control | [23] 97 % of control

C1CC2CCC(N3CCOCC3)C(C1)O2 (configuration not stated)
inactive: [13] 102 % of control | [14] 102 % of control | [15] 102 % of control

CCN(CC)P1(=O)NCCCO1 (configuration not stated)
inactive: [14] 87 % of control | [15] 94 % of control | [24] 92 % of control

CS(=O)(=O)O.[Cu+2]
inactive: dose: 5.0 mg/kg/injection, schedule: Q01DX001 (ip), vehicle: saline 93 % of control | dose: 10.0 mg/kg/injection, schedule: Q01DX001 (ip), vehicle: saline 96 % of control

COc1ccc(OC)c(NC(=O)OCCOc2ccccc2)c1
inactive: [14] 104 % of control | [15] 107 % of control | [24] 100 % of control

CN(C)c1ccc(/C=C/C(=O)/C=C/c2ccc(N(C)C)cc2)cc1
inactive: [3] 96 % of control | [4] 95 % of control | [5] 101 % of control

COc1ccc(C)cc1NC(=O)NC(C)=O
inactive: [13] 92 % of control | [14] 88 % of control | [15] 95 % of control

N#CC1=C(C#N)C(=O)C(Cl)=C(Cl)C1=O
inactive: dose: 6.25 mg/kg/injection, schedule: Q01DX009 (ip), vehicle: saline 98 % of control | dose: 12.5 mg/kg/injection, schedule: Q01DX009 (ip), vehicle: saline 102 % of control | dose: 12.5 mg/kg/injection, schedule: Q04DX003 (ip), vehicle: saline sonified 104 % of control | dose: 25.0 mg/kg/injection, schedule: Q04DX003 (ip), vehicle: saline sonified 93 % of control
